# In patent US20060241122A1, “Combination therapy for the treatment of neoplasms” (priority 2003, published 2006):
# Like-named read-outs stand apart in the source and are kept apart here.
# Legend:
# [1] = tested on: human colorectal carcinoma HCT116 cells; test: Anti-proliferation assay (Alamar Blue metabolism), HCT116 cells;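 note: cells in 384-well plates exposed to compound combination matrices for 72 h, Alamar Blue fluorescence read (excitation 530 nm), inhibition calculated against mean of vehicle-only wells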
# Experimental: Stock solutions (1000×) of each compound were prepared in DMSO and stored at −20° C. Master stock plates of 2-fold or 4-fold serial dilutions of individual compounds were prepared in 384-well plates. Combination matrices of test compounds were generated from these master stock plates by dilution into growth media described above. […] The combination matrices were used immediately and discarded.
# The anti-proliferation assays were performed in 384-well plates. […] Cells were diluted in culture media such that 3,000 SKMEL-28 cells, or 1,500 cells for all the other cell lines, were delivered in 35 μl of media into each assay well. Assay plates were incubated for 16-24 hours 37° C.±0.5° C. with 5% CO2. After incubation, 4.5 μl of 10× stock solutions from the combination matrices were added to 40 μl of culture media. Assay plates were further incubated for 72 hours at 37° C.±0.5° C. with 5% CO2. […] Alamar Blue metabolism was quantified by the amount of fluorescence intensity 3.5-5.0 hours after addition. Quantification, using an LJL Analyst AD reader (LJL Biosystems), was taken in the middle of the well with high attenuation, a 100 msec read time, an excitation filter at 530 nm, and an emission filter at 575 nm. For some experiments, quantification was performed using a Wallac Victor^2 reader. Measurements were taken at the top of the well with stabilized energy lamp control; a 100 msec read time, an excitation filter at 530 nm, and an emission filter at 590 nm.
# [2] = tested on: human melanoma SKMEL-28 cells; test: Anti-proliferation assay (Alamar Blue metabolism), SKMEL-28 cells; assay type: cell-based
# Source text: (§1) The combination matrices were used immediately and discarded.
# [3] = tested on: human pancreatic cancer PANC1 cells; test: Anti-proliferation assay (Alamar Blue metabolism), PANC1 cells; assay type: cell-based; details: PANC1 cells
# Source text: as §1
# [4] = tested on: human prostate cancer DU145 cells; test: Anti-proliferation assay (Alamar Blue metabolism), DU145 cells; assay type: cell-based; details: Homo sapiens, DU-145, DU145 cells
# Source text: as §1
# [5] = tested on: non-small cell lung carcinoma A549 cells; test: Anti-proliferation assay (Alamar Blue metabolism), A549 cells; assay type: cell-based; details: A549 cells
# Experimental: Inhibition of proliferation was measured by anti-proliferation assay as described below after incubation with the test compound(s) for 72 hours.
# as §1
# Cells were diluted in culture media such that 3,000 SKMEL-28 cells, or 1,500 cells for all the other cell lines, were delivered in 35 μl of media into each assay well. Assay plates were incubated for 16-24 hours 37° C.±0.5° C. with 5% CO2. […] Assay plates were further incubated for 72 hours at 37° C.±0.5° C. with 5% CO2. […] Alamar Blue metabolism was quantified by the amount of fluorescence intensity 3.5-5.0 hours after addition.
# The percent inhibition (% I) for each well was calculated using the following formula: % I=[(avg. untreated wells−treated well)/(avg. untreated wells)]×100 The average untreated well value (avg. untreated wells) is the arithmetic mean of 40 wells from the same assay plate treated with vehicle alone.
# [6] = Homo sapiens, HCT-116, read-out: Percent inhibition of Alamar Blue Metabolism, lovastatin […], econazole 0.0 μM
# [7] = Homo sapiens, HCT-116, read-out: Percent inhibition of Alamar Blue Metabolism, tioconazole 0.0 μM, lovastatin […]
# [8] = Homo sapiens, HCT-116, read-out: Percent inhibition of Alamar Blue Metabolism, lovastatin 0.0 μM, econazole […]
# [9] = Homo sapiens, HCT-116, read-out: Percent inhibition of Alamar Blue Metabolism, tioconazole […], lovastatin 0.0 μM
# [10] = with addition of 7 μM itraconazole
compound,measurement,setting,value
"CC[C@H](C)C(=O)O[C@H]1C[C@@H](C)C=C2C=C[C@H](C)[C@H](CC[C@@H]3C[C@@H](O)CC(=O)O3)[C@H]21 [Lovastatin, lovastatin]",reduction in the concentration of lovastatin,"[1]; HCT116 cells, 6 μM with […] itraconazole vs 48 μM alone",8 fold
same,inhibition at 6 µM,"[1]; Homo sapiens, HCT-116, HCT116 cells, 6.0 μM lovastatin + 9.0 μM tioconazole",70.1%
same,inhibition at 6 µM,"[1]; Homo sapiens, HCT-116, HCT116 cells, 6 μM lovastatin + […] itraconazole",83.4%
same,inhibition at 18 µM,"[1]; Homo sapiens, HCT-116, HCT116 cells, 18 μM lovastatin + […] econazole",84.5%
same,inhibition at 0.3 µM,"[1]; Homo sapiens, HCT-116, read-out: Percent inhibition of Alamar Blue Metabolism, lovastatin 0.3 μM, econazole 0.0 μM",10.5%
same,inhibition at 0.6 µM,"[1]; Homo sapiens, HCT-116, read-out: Percent inhibition of Alamar Blue Metabolism, lovastatin 0.6 μM, econazole 0.0 μM",5.4%
same,inhibition at 9 µM,"[1]; Homo sapiens, HCT-116, read-out: Percent inhibition of Alamar Blue Metabolism, lovastatin 9.0 μM, econazole 0.0 μM",27.3%
same,inhibition at 18 µM,[1]; [6],41.3%
same,inhibition at 36 µM,[1]; [6],95.6%
same,inhibition at 0.2 µM,"[1]; Homo sapiens, HCT-116, read-out: Percent inhibition of Alamar Blue Metabolism, tioconazole 0.0 μM, lovastatin 0.2 μM",9.8%
same,inhibition at 0.4 µM,"[1]; Homo sapiens, HCT-116, read-out: Percent inhibition of Alamar Blue Metabolism, tioconazole 0.0 μM, lovastatin 0.4 μM",23.1%
same,inhibition at 0.8 µM,"[1]; Homo sapiens, HCT-116, read-out: Percent inhibition of Alamar Blue Metabolism, tioconazole 0.0 μM, lovastatin 0.8 μM",12.3%
same,inhibition at 3 µM,"[1]; Homo sapiens, HCT-116, read-out: Percent inhibition of Alamar Blue Metabolism, tioconazole 0.0 μM, lovastatin 3.0 μM",29.9%
same,inhibition at 6 µM,"[1]; Homo sapiens, HCT-116, read-out: Percent inhibition of Alamar Blue Metabolism, tioconazole 0.0 μM, lovastatin 6.0 μM",46.1%
same,inhibition at 12 µM,[1]; [7],50%
same,inhibition at 24 µM,[1]; [7],61.9%
same,inhibition at […],[1]; [7],32.2%
same,inhibition at 24 µM,"[1]; Homo sapiens, HCT-116, read-out: maximal inhibition, HCT116 cells, lovastatin 24 μM alone (Example 22)",61.9%
same,inhibition at 36 µM,"[1]; Homo sapiens, HCT-116, read-out: maximal inhibition, HCT116 cells, lovastatin 36 μM alone (Example 20)",95.6%
same,inhibition at 48 µM,"[1]; Homo sapiens, HCT-116, read-out: maximal inhibition, HCT116 cells, lovastatin 48 μM alone (Example 14)",55%
same,Percent inhibition of Alamar Blue Metabolism in HCT116 cells,"[1]; Table 14: itraconazole 14 μM + lovastatin at row conc. c1 (0-48 μM), 72 h",88.9%
Clc1ccc(COC(Cn2ccnc2)c2ccc(Cl)cc2Cl)cc1 (stereo not shown) [econazole],inhibition at 0.4 µM,"[1]; Homo sapiens, HCT-116, read-out: Percent inhibition of Alamar Blue Metabolism, atorvastatin 0.0 μM, econazole 0.4 μM",0.7%
same,inhibition at 0.7 µM,"[1]; Homo sapiens, HCT-116, read-out: Percent inhibition of Alamar Blue Metabolism, atorvastatin 0.0 μM, econazole 0.7 μM",-1.7%
same,inhibition at 2.8 µM,"[1]; Homo sapiens, HCT-116, read-out: Percent inhibition of Alamar Blue Metabolism, atorvastatin 0.0 μM, econazole 2.8 μM",1.6%
same,inhibition at 0.4 µM,"[1]; Homo sapiens, HCT-116, read-out: Percent inhibition of Alamar Blue Metabolism, lovastatin 0.0 μM, econazole 0.4 μM",0.6%
same,inhibition at 0.8 µM,"[1]; Homo sapiens, HCT-116, read-out: Percent inhibition of Alamar Blue Metabolism, lovastatin 0.0 μM, econazole 0.8 μM",8.8%
same,inhibition at 3 µM,"[1]; Homo sapiens, HCT-116, read-out: Percent inhibition of Alamar Blue Metabolism, lovastatin 0.0 μM, econazole 3.0 μM",23.9%
same,inhibition at 6 µM,"[1]; Homo sapiens, HCT-116, read-out: Percent inhibition of Alamar Blue Metabolism, lovastatin 0.0 μM, econazole 6.0 μM",36.7%
same,inhibition at 48 µM,"[1]; Homo sapiens, HCT-116, read-out: Percent inhibition of Alamar Blue Metabolism, lovastatin 0.0 μM, econazole 48.0 μM",96.1%
same,inhibition at 12 µM,[1]; [8],57.2%
same,inhibition at 24 µM,[1]; [8],78.6%
same,inhibition at […],[1]; [8],14.9%
same,inhibition at 36 µM,"[1]; Homo sapiens, HCT-116, read-out: maximal inhibition, HCT116 cells, 36 μM alone (Example 18)",83.1%
CC(C)N1CCN(c2ccc(OCC3COC(Cn4cncn4)(c4ccc(Cl)cc4Cl)O3)cc2)CC1 (stereo not shown) [terconazole],inhibition at 19 µM,"[1]; Homo sapiens, HCT-116, read-out: Percent inhibition of Alamar Blue Metabolism, atorvastatin 0 μM, terconazole 19 μM",38.4%
same,inhibition at 38 µM,"[1]; Homo sapiens, HCT-116, read-out: Percent inhibition of Alamar Blue Metabolism, atorvastatin 0 μM, terconazole 38 μM",94.8%
CC[C@H](C)C(=O)O[C@H]1C[C@@H](C)C=C2C=C[C@H](C)[C@H](CCC(O)C[C@@H](O)CC(=O)O)[C@H]21 (stereo partly shown) [lovastatin sodium],reduction in the concentration of lovastatin,"[1]; HCT116 cells, 2.8 μM with 7 μM itraconazole vs 22 μM alone",8 fold
same,inhibition at 2.8 µM,"[1]; Homo sapiens, HCT-116, HCT116 cells, 2.8 μM lovastatin sodium + 7 μM itraconazole",82%
same,inhibition at 22 µM,"[1]; Homo sapiens, HCT-116, read-out: maximal inhibition, HCT116 cells, lovastatin sodium 22 μM alone",58.9%
Clc1ccccc1C(c1ccccc1)(c1ccccc1)n1ccnc1 [clotrimazole],inhibition at 0.5 µM,"[1]; Homo sapiens, HCT-116, read-out: Percent inhibition of Alamar Blue Metabolism, atorvastatin 0.0 μM, clotrimazole 0.5 μM",25.9%
same,inhibition at 0.9 µM,"[1]; Homo sapiens, HCT-116, read-out: Percent inhibition of Alamar Blue Metabolism, atorvastatin 0.0 μM, clotrimazole 0.9 μM",35.8%
"CC(C)n1c(/C=C/C(O)CC(O)CC(=O)O)c(-c2ccc(F)cc2)c2ccccc21 (stereo not shown) [Fluvastatin, fluvastatin]",inhibition at 3 µM,"[2]; Homo sapiens, SK-MEL-28, SKMEL-28 cells, 3 μM fluvastatin + 7 μM itraconazole",59.5%
same,inhibition at 49 µM,"[2]; Homo sapiens, SK-MEL-28, SKMEL-28 cells, fluvastatin 49 μM alone, read-out: maximal inhibition",27.8%
same,reduction in the concentration of fluvastatin,"[2]; SKMEL-28 cells, 3 μM with 7 μM itraconazole vs 49 μM alone",16 fold
same,Percent inhibition of Alamar Blue Metabolism in SKMEL-28 cells,"[2]; Table 13: itraconazole 0.87 μM + fluvastatin at row conc. c1 (0-49 μM), 72 h",35.4%
same,inhibition at 12 µM,"[3]; Homo sapiens, PANC-1, 12 μM fluvastatin + 7 μM itraconazole",56.8%
same,inhibition at 49 µM,"[3]; Homo sapiens, PANC-1, fluvastatin 49 μM alone, read-out: maximal inhibition",59.9%
same,reduction in the concentration of fluvastatin,"[1]; HCT116 cells, […] with 7 μM itraconazole vs 49 μM alone",8 fold
same,inhibition at […],"[1]; Homo sapiens, HCT-116, HCT116 cells, […] fluvastatin + 7 μM itraconazole",91.9%
same,inhibition at 49 µM,"[1]; Homo sapiens, HCT-116, read-out: maximal inhibition, HCT116 cells, fluvastatin 49 μM alone",93.1%
same,inhibition at 12 µM,[4]; 12 μM fluvastatin + 14 μM itraconazole,40.3%
same,inhibition at 12 µM,"[4]; 12 μM fluvastatin, absence of itraconazole",15.5%
same,inhibition at 49 µM,"[4]; fluvastatin 49 μM alone, read-out: maximal inhibition",58.3%
COCc1c(C(C)C)nc(C(C)C)c(/C=C/[C@@H](O)C[C@@H](O)CC(=O)O)c1-c1ccc(F)cc1 [cerivastatin],reduction in the concentration of cerivastatin,"[1]; HCT116 cells, […] with […] itraconazole vs 22 μM alone",8 fold
same,inhibition at 22 µM,"[1]; Homo sapiens, HCT-116, read-out: Percent inhibition of Alamar Blue Metabolism, cerivastatin 22 μM, itraconazole 0 μM",85.5%
same,inhibition at 22 µM,"[1]; Homo sapiens, HCT-116, read-out: maximal inhibition, HCT116 cells, cerivastatin 22 μM alone",85.5%
Clc1ccc(C(Cn2ccnc2)OCc2ccsc2Cl)c(Cl)c1 (stereo not shown) [tioconazole],inhibition at 0.3 µM,"[1]; Homo sapiens, HCT-116, read-out: Percent inhibition of Alamar Blue Metabolism, tioconazole 0.3 μM, lovastatin 0.0 μM",8.6%
same,inhibition at 0.6 µM,"[1]; Homo sapiens, HCT-116, read-out: Percent inhibition of Alamar Blue Metabolism, tioconazole 0.6 μM, lovastatin 0.0 μM",3.7%
same,inhibition at 9 µM,"[1]; Homo sapiens, HCT-116, read-out: Percent inhibition of Alamar Blue Metabolism, tioconazole 9.0 μM, lovastatin 0.0 μM",19.8%
same,inhibition at 18 µM,[1]; [9],26.8%
same,inhibition at 36 µM,[1]; [9],41.3%
"CCC(C)(C)C(=O)O[C@H]1C[C@@H](C)C=C2C=C[C@H](C)[C@H](CC[C@@H]3C[C@@H](O)CC(=O)O3)[C@H]21 [Simvastatin, simvastatin]",reduction in simvastatin,"[2]; SKMEL-28 cells, 6 μM with 7 μM itraconazole vs 48 μM alone",8 fold
same,inhibition of cell proliferation,"[2]; SKMEL-28 cells, 9 μM statin + 7 μM itraconazole",61.8%
same,inhibition,"[2]; SKMEL-28 cells, 9 μM statin, absence of itraconazole",24.0%
same,simvastatin concentration required for nearly maximal inhibition,[3]; [10],12 µM
same,reduction in the concentration of simvastatin,[5]; 12 μM with 7 μM itraconazole vs 48 μM alone,4 fold
same,simvastatin concentration required for nearly maximal inhibition,[5]; [10],12 µM
same,inhibition at 12 µM,"[1]; Homo sapiens, HCT-116, HCT116 cells, 12 μM simvastatin + 7 μM itraconazole",92.7%
